Data as given in US20020137929A1, “1 - (3-heterocyclylphenyl) isothiourea, -isourea, -guanidine and -amidine herbicidal agents” (Intellectual Property Department, BASF Aktiengesellschaft, priority 1998, published 2002).

Columns and labels:
ZEAMX (Corn, Field) = assay: Preemergence herbicidal evaluation; assay type: in vivo, Zea mays; details: rated 4-5 weeks after treatment
In short: (§1)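 Each species is sown separately in potting soil over roughly an inch of soil before any emergence. The soil surface then receives an aqueous acetone spray delivering about 0.0156 to 0.500 kg/ha of compound. After four to five weeks, injury is scored from 0 to 9 relative to a control.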

CASOB (Sicklepod) = assay: Preemergence herbicidal evaluation; assay type: in vivo, Cassia obtusifolia; details: rated 4-5 weeks after treatment
In short: as §1

[1] = system: IPOHE (Morningglory, Ivyleaf); assay: Preemergence herbicidal evaluation; assay type: in vivo, Ipomoea hederacea; details: rated 4-5 weeks after treatment
In short: as §1

ECHCG (Barnyardgrass) [2] = assay: Postemergence herbicidal evaluation; assay type: in vivo, Echinochloa crus-galli; details: postemergence
In short: (§2)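 Seedlings grown about two weeks were sprayed at 40 psi with compound dispersed in 50/50 acetone/water plus 0.5% TWEEN 20, at about 0.0156 to 0.500 kg/ha. Plants were kept in the greenhouse and scored 4–5 weeks later on a 0–9 visual scale against untreated controls.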

[3] = system: GLXMAW (Soybean, Williams); assay: Postemergence herbicidal evaluation; assay type: in vivo, Glycine max, (L.) Merr. cv Williams; details: postemergence
In short: as §2

AMBEL (Ragweed, Common) = assay: Postemergence herbicidal evaluation; assay type: in vivo, Ambrosia artemisifolia; details: postemergence
In short: as §2

ECHCG (Barnyardgrass) [4] = assay: Preemergence herbicidal evaluation; assay type: in vivo, Echinochloa crus-galli; details: rated 4-5 weeks after treatment
In short: as §1

SETVI (Foxtail, Green) = assay: Postemergence herbicidal evaluation; assay type: in vivo, Setaria viridis; details: postemergence
In short: as §2

[5] = system: TRZAWR (Wheat, Winter, cv Riband); assay: Postemergence herbicidal evaluation; assay type: in vivo, Triticum aestivum; details: postemergence
In short: as §2

GALAP (Galium) = assay: Preemergence herbicidal evaluation; assay type: in vivo, Galium aparine; details: rated 4-5 weeks after treatment
In short: as §1

[6] = system: IPOHE (Morningglory, Ivyleaf); assay: Postemergence herbicidal evaluation; assay type: in vivo, Ipomoea hederacea; details: postemergence
In short: as §2

[7] = system: CHEAL (Lambsquarters, Common); assay: Preemergence herbicidal evaluation; assay type: in vivo, Chenopodium album; details: rated 4-5 weeks after treatment
In short: as §1

ABUTH (Velvetleaf) = assay: Postemergence herbicidal evaluation; assay type: in vivo, Abutilon theophrasti; details: postemergence
In short: as §2

[8] = system: ECHORC (Watergrass (Calif.)); assay: Postemergence weed control under flooded paddy conditions; assay type: in vivo, Echinochloa oryzoides; details: postemergence weeds, 3-4 weeks after treatment
In short: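 Herbicidal effect is judged by eye on a 0–9 scale versus control, 3–4 weeks after dosing. Dosing is into flood water kept 1.5–3 cm over the soil, at about 0.0313–0.500 kg/ha in aqueous/acetone 50/50 v/v, on 3–5 cm weeds and 1.5–2.5-leaf rice seedlings.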

`CCOC(=O)CN1C(=O)C(=Cc2ccccc2)SC1=Nc1cc(-n2c(=O)cc(C(F)(F)F)n(C)c2=O)c(F)cc1Cl` [Compound 19, Ethyl 5-benzylidene-2-{{2-chloro-5-[3,6-dihydro-3-methyl-2,6-dioxo-4-(trifluoromethyl)-1(2H)-pyrimidinyl]-4-fluorophenyl}imino}-4-oxo-3-thiazolidineacetate] was tested, and the “ZEAMX preemergence herbicidal rating” value (ZEAMX (Corn, Field); rate 0.1250 kg/ha) was 0.0, the “ZEAMX preemergence herbicidal rating” value (ZEAMX (Corn, Field); rate 0.2500 kg/ha) was 0.0 and the “CASOB preemergence herbicidal rating” value (CASOB (Sicklepod); rate 0.1250 kg/ha) was 0.0. For the same compound, the “CASOB preemergence herbicidal rating” value (CASOB (Sicklepod); rate 0.2500 kg/ha) was 0.0, the “IPOHE preemergence herbicidal rating” value ([1]; rate 0.1250 kg/ha) was 0.0 and the “IPOHE preemergence herbicidal rating” value ([1]; rate 0.2500 kg/ha) was 0.0. The ECHCG herbicidal rating (ECHCG (Barnyardgrass) [2]; rate 0.0158 kg/ha) was 1.0, the ECHCG herbicidal rating (ECHCG (Barnyardgrass) [2]; rate 0.0315 kg/ha) was 2.0 and the ECHCG herbicidal rating (ECHCG (Barnyardgrass) [2]; rate 0.0630 kg/ha) was 2.0. For the same compound, the GLXMAW herbicidal rating ([3]; rate 0.0158 kg/ha) was 3.0, the GLXMAW herbicidal rating ([3]; rate 0.0315 kg/ha) was 4.5 and the GLXMAW herbicidal rating ([3]; rate 0.0630 kg/ha) was 4.5. For the same compound, the AMBEL herbicidal rating (AMBEL (Ragweed, Common); rate 0.0158 kg/ha) was 3.0, the AMBEL herbicidal rating (AMBEL (Ragweed, Common); rate 0.0315 kg/ha) was 3.0 and the AMBEL herbicidal rating (AMBEL (Ragweed, Common); rate 0.0630 kg/ha) was 7.0. For the same compound, the “ECHCG preemergence herbicidal rating” value (ECHCG (Barnyardgrass) [4]; rate 0.1250 kg/ha) was 0.0, the “ECHCG preemergence herbicidal rating” value (ECHCG (Barnyardgrass) [4]; rate 0.2500 kg/ha) was 0.0 and the SETVI herbicidal rating (SETVI (Foxtail, Green); rate 0.0158 kg/ha) was 1.0. It also gave an SETVI herbicidal rating (SETVI (Foxtail, Green); rate 0.0315 kg/ha) of 2.0, an SETVI herbicidal rating (SETVI (Foxtail, Green); rate 0.0630 kg/ha) of 2.0 and a TRZAWR herbicidal rating ([5]; rate 0.0158 kg/ha) of 3.0. The TRZAWR herbicidal rating ([5]; rate 0.0315 kg/ha) was 4.0, the TRZAWR herbicidal rating ([5]; rate 0.0630 kg/ha) was 4.5 and the “GALAP preemergence herbicidal rating” value (GALAP (Galium); rate 0.1250 kg/ha) was 0.0. The “GALAP preemergence herbicidal rating” value (GALAP (Galium); rate 0.2500 kg/ha) was 0.0, the IPOHE herbicidal rating ([6]; rate 0.0158 kg/ha) was 2.0 and the IPOHE herbicidal rating ([6]; rate 0.0315 kg/ha) was 9.0. For the same compound, the IPOHE herbicidal rating ([6]; rate 0.0630 kg/ha) was 5.0, the “CHEAL preemergence herbicidal rating” value ([7]; rate 0.1250 kg/ha) was 9.0 and the “CHEAL preemergence herbicidal rating” value ([7]; rate 0.2500 kg/ha) was 9.0. It also gave an ABUTH herbicidal rating (ABUTH (Velvetleaf); rate 0.0158 kg/ha) of 9.0, an ABUTH herbicidal rating (ABUTH (Velvetleaf); rate 0.0315 kg/ha) of 9.0 and an ABUTH herbicidal rating (ABUTH (Velvetleaf); rate 0.0630 kg/ha) of 9.0. The “Herbicidal rating ECHORC” value ([8]; rate 0.1160 kg/ha) was 7.0, the “Herbicidal rating ECHORC” value ([8]; rate 0.2310 kg/ha) was 7.0 and the “Herbicidal rating ECHORC” value ([8]; rate 0.4630 kg/ha) was 9.0.
